# Results as given in patent US8536132B2, “Lymphatic zip codes in tumors and pre-malignant lesions” (Sanford-Burnham Medical Research Institute, priority 2006, dated 2013).
# Entries after “also recorded” stand apart in the source; their conditions may differ. Marks after values point to notes of the source that are not given here. Ends that are not written are not given here. * marks the point of attachment. FITC = O=C1OC2(c3ccc(O)cc3Oc3cc(O)ccc32)c2ccc(NC(=S)*)cc21
# Assays:
# C8161 xenografts = experiment: In vivo phage homing to C8161 xenograft tumors; set-up: species or system mouse; details: for phage homing to C8161 tumors (in words): i.v. injected phage, C8161 xenograft mice
# Protocol: (§1) The following cell lines were maintained in DMEM supplemented with 10% FCS: C8161 human melanoma, MDA-MB-435 human breast cancer, KRIB human osteosarcoma, and human prostate cancer cells PPC1, DU145. LNCaP human prostate cancer cell line was grown in RPMI 1640 medium with 10 mM HEPES, 1 mM sodium pyruvate and 1.5 g/L sodium bicarbonate supplemented with 10% FCS. M12 human prostate cancer cell line was cultured in RPMI 1640 with 5 μg/ml insulin-transferrin-sodium selenite (ITS), 2.5 μg/ml fungizone, 50 μg/ml gentamycin, 0.2 μM dexamethasone, 10 ng/ml epidermal growth factor (EGF), and 5% FCS (Bae et al., 1998). To produce tumors, nude BALB/c and C56BL/6 mice were subcutaneously (C8161, KRIB, and PPC1) or orthotopically ([…], PPC1, DU145, M12, and LNCaP) injected with 1×10^6 tumor cells. Transgenic mouse tumor models included TRAMP prostate cancer, MMTV-PyMT breast cancer, and K14-HPV16 cervical cancer. To initiate cervical carcinogenesis, female K14-HPV16 mice (Arbeit et al., 1994) were treated with 17β-estradiol (E2; (Arbeit et al., 1996; Giraudo et al., 2004). Briefly, one-month-old virgin female transgenic (heterozygous K14-HPV16, 1203#1) and nontransgenic (FVB/n) mice were anesthetized with isoflurane, and continuous release pellets that deliver E2 at doses of 0.05 mg over 60 days (Innovative Research of America, Sarasota, Fla., USA) were implanted subcutaneously in the dorsal back skin. Subsequent pellets were implanted at 3 and 5 months of age for a total of 6 months of hormone treatment. K14-HPV16 mice were maintained in the FVB/n background (FVB/n; The Jackson Laboratory). The mice were maintained in accordance with the University of California, San Francisco (UCSF) institutional guidelines governing the care of laboratory mice. The animal experimentation was approved by Animal Research Committees at UCSF or The Burnham Institute.
# (§2) In vivo homing specificity of phage was tested as described (Hoffman, 2004). Briefly, mice bearing tumors were anesthetized and intravenously injected with 5×10^9 pfu of phage. After 7 min, the mice were perfused through the heart with PBS containing 0.5% BSA. The tumor and control organs were dissected from each mouse and the phage were rescued and tittered. For histology analysis, the mice were perfused with 4% PFA 30 min after the injection of phage. Tissues were embedded in Tissue-Tek O.C.T. and 5 μm sections were prepared for phage immunostaining.
# KRIB tumors = experiment: Fluorescein-labeled LSD peptide homing to KRIB tumors; type: in vivo, mouse; details: fluorescein-labeled peptide i.v.
# Protocol: (§3) The frozen sections were prepared for immunohistological analysis.
# [1] = tested on: MDA-MB-435 orthotopic xenografts; experiment: In vivo phage homing to MDA-MB-435 orthotopic xenografts; set-up: species or system mouse
# Protocol: as §1, §2
# C8161 tumors = experiment: Tissue distribution of fluorescein-conjugated LSD peptide in C8161 tumor mice; type: in vivo, mouse; set-up: fluorescence in all other tissues except tumors: dose or concentration left out as unconfirmed; details: for fluorescent peptide in C8161 tumors and control organs: fluorescein-conjugate peptide i.v., 2 hrs circulation
# Protocol: as §3
# MMTV-PyMT breast tumors = experiment: In vivo phage homing to MMTV-PyMT breast tumors; set-up: species or system mouse
# Protocol: as §1, §2
# CXCR4 = molecular target: T1, CXCR4 (Homo sapiens, UniProt P61073); experiment: Phage binding to CXCR4-transfected 293T cells
# T1 construct: expressed in transfected cells; host or cells: 293T cells, transient transfection with FuGene 6
# T1 sequence (P61073 whole entry, species assumed): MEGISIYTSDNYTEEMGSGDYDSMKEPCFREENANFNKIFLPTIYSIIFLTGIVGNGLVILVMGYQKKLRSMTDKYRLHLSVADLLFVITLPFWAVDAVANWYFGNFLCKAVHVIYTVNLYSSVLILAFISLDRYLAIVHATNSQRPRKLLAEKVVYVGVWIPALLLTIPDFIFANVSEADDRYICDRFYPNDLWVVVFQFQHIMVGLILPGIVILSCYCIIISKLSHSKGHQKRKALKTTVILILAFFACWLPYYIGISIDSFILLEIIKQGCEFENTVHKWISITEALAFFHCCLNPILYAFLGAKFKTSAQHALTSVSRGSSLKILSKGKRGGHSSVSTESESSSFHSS
# Protocol: The 293T cells were transfected with plasmids encoding CXCR4 (Helbig et al., 2003) or VEGFR2 (Borges et al., 2000) using FuGene 6 transfection reagent (Roche Diagnostics, Indianapolis, Ind.). Briefly, plasmid (10 μg) was mixed with 900 μl of serumfree DMEM and 50 μl of FuGene and incubated for 15 min at room temperature before adding the mixture to the cells. The cells were detached using EDTA after 48 hrs post transfection and washed with PBS containing 1% BSA. Phage (5×10^9 pfu) were incubated with the transfected cells and bound phage were rescued and titrated. For competitive binding assay, the cognate peptide (150 μg/ml) or antibody (50 μg/ml) was added during incubating of the phage with cells. Targeted proapoptotic peptide treatment of tumor-bearing mice Prostate cancer model. Orthotopic xenografted prostate tumors were established by injecting 1×10^6 PPC1 human prostate cancer cells into the mouse prostate. Fifteen days post inoculation, the mice were intravenously injected with D(KLAKLAK)2-CREAGRKAC (SEQ ID NO:41), an equimolar mixture of D(KLAKLAK)2 (SEQ ID NO:19) and CREAGRKAC (SEQ ID NO:6), or PBS. Biweekly injections of 100 μg/dose/mouse were given for three weeks. Melanoma model. Nude BALB/c mice were subcutaneously injected with 1×10^6 C8161 human melanoma cells. Treatment started when mean tumor volumes reached about 100 mm3. Mice with size-matched tumors were randomized into three groups. The therapeutic group received a chimera of tumor homing peptide with the proapoptotic motif (D(KLAKLAK)2-CLSDCGKRKC; SEQ ID NO:42). The control groups received an equimolar mixture of CLSDGKRKC (SEQ ID NO:4) and D(KLAKLAK)2 (SEQ ID NO:19), or PBS alone. The tumor-bearing mice were intravenously injected with 200 μg/dose/mouse once a week for three weeks. The mice were monitored for weight loss, and tumors were dissected and weighed at the termination of the experiment. Histological analysis was performed to evaluate the density of tumor lymphatics and blood vessels. The animal experiments reported here were approved by The Burnham Institute Animal Research Committee.
# K14-HPV16 skin cancer = experiment: In vivo homing to K14-HPV16 skin cancer; set-up: species or system mouse
# Protocol: as §1, §2
# KRIB xenografts = experiment: In vivo phage homing to KRIB xenografts; set-up: species or system mouse; details: for phage homing to KRIB xenografts (in words): i.v. injected phage
# Protocol: as §1, §2
# [2] = tested on: cell suspensions prepared from C8161 tumors; experiment: Phage binding to cell suspensions prepared from C8161 tumors; type: cell-based, mouse; details: phage clone, ex vivo
# VEGFR2 = molecular target: T2, VEGFR2 (Homo sapiens, UniProt P35968); experiment: Phage binding to VEGFR2-transfected 293T cells
# T2 construct: expressed in transfected cells; host or cells: 293T cells, transient transfection with FuGene 6
# T2 sequence (P35968 20-1356, species assumed): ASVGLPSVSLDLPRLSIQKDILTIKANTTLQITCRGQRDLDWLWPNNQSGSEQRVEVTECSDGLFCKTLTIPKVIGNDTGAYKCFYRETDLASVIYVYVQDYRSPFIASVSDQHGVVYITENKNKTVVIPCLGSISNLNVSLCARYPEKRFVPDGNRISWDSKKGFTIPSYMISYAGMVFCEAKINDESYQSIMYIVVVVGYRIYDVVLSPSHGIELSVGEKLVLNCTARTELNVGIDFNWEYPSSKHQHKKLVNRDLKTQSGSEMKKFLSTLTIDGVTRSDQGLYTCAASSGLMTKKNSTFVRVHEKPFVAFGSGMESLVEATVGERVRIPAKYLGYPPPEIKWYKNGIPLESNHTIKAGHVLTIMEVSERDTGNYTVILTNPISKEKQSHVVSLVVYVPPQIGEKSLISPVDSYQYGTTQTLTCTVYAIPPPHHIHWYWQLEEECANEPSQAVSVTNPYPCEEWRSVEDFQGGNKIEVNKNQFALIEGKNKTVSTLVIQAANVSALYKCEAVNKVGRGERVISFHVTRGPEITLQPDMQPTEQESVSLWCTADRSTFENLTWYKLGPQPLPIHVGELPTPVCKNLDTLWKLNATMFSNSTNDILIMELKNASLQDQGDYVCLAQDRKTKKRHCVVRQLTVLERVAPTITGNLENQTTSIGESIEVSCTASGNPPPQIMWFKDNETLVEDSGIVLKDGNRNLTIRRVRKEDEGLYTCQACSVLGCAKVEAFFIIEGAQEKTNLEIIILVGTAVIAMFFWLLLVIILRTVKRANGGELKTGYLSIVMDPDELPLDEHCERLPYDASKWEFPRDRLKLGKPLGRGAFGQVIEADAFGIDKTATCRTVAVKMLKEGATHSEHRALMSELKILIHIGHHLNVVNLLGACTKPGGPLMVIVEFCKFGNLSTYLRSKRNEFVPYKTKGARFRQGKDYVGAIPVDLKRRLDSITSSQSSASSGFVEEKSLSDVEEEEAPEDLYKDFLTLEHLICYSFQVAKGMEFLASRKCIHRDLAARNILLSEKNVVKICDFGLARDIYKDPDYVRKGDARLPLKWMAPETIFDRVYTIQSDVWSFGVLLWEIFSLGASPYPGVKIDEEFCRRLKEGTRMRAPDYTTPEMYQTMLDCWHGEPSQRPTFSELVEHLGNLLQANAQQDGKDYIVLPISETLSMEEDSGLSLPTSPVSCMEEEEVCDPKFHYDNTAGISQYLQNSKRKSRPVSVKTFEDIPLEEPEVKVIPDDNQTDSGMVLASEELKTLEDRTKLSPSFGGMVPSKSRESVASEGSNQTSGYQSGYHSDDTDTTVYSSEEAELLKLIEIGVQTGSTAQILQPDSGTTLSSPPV
# Protocol: The 293T cells were transfected with plasmids encoding CXCR4 (Helbig et al., 2003) or VEGFR2 (Borges et al., 2000) using FuGene 6 transfection reagent (Roche Diagnostics, Indianapolis, Ind.). Briefly, plasmid (10 μg) was mixed with 900 μl of serumfree DMEM and 50 μl of FuGene and incubated for 15 min at room temperature before adding the mixture to the cells. The cells were detached using EDTA after 48 hrs post transfection and washed with PBS containing 1% BSA. Phage (5×10^9 pfu) were incubated with the transfected cells and bound phage were rescued and titrated. For competitive binding assay, the cognate peptide (150 μg/ml) or antibody (50 μg/ml) was added during incubating of the phage with cells. Targeted proapoptotic peptide treatment of tumor-bearing mice Prostate cancer model. Orthotopic xenografted prostate tumors were established by injecting 1×10^6 PPC1 human prostate cancer cells into the mouse prostate. Fifteen days post inoculation, the mice were intravenously injected with D(KLAKLAK)2-CREAGRKAC (SEQ ID NO:41), an equimolar mixture of D(KLAKLAK)2 (SEQ ID NO:19) and CREAGRKAC (SEQ ID NO:6), or PBS. Biweekly injections of 100 μg/dose/mouse were given for three weeks. Melanoma model. […] The mice were monitored for weight loss, and tumors were dissected and weighed at the termination of the experiment. […]
# [3] = tested on: PPC1 orthotopic xenografts; experiment: In vivo phage homing to PPC1 orthotopic xenografts; set-up: species or system mouse
# Protocol: as §1, §2
# TRAMP prostate tumors = experiment: In vivo phage homing to TRAMP prostate tumors; set-up: species or system mouse
# Protocol: as §1, §2
# [4] = tested on: the other tumors, including the skin cancers; experiment: Fluorescein-labeled LSD peptide homing to other tumors; type: in vivo, mouse; details: fluorescein-labeled peptide i.v.
# Protocol: as §3
# [5] = tested on: K14-HPV16/E2 cervical lesions; experiment: Distribution of fluorescent peptides in K14-HPV16/E2 mice with cervical lesions; type: in vivo, mouse; details: labeled peptide i.v.
# Protocol: as §3
# [6] = tested on: PPC1, M12, DU145, and LNCaP orthotopic xenografts; experiment: Fluorescein-conjugated REA peptide homing to orthotopic human prostate cancer xenografts; type: in vivo, mouse
# Protocol: Custom immunization to produce a rabbit antiserum against mouse Prox-1 was performed by Proteintech Inc. New Zealand White rabbits were immunized with a fusion protein of GST-C-terminal fragment of Prox-1 protein. The antibody was affinity purified on the fusion protein and absorbed with GST. […] Antibodies against the lymphatic markers anti-LYVE-1 (Laakkonen et al., 2002) and anti-podoplanin (kindly provided by T. Petrova and K. Alitalo), rat monoclonal anti-mouse CD31 (BD Pharmingen), rat anti-mouse MECA-32 (Pharmingen), rabbit polyclonal anti-T7 phage, and rat anti-mouse VEGFR3 were used for immunohistochemical staining of frozen tissue sections as described (Joyce et al., 2003; Laakkonen et al., 2002). The corresponding secondary antibodies were added and incubated for 1 hr at room temperature: AlexaFluor-488 goat anti-rat or rabbit IgG (1:1000; Molecular Probes, Eugene, Oreg.), AlexaFluor-594 goat anti-rat or rabbit IgG (1:1000, Molecular Probes), AlexaFluor-594 donkey anti-mouse or goat IgG (1:1000, Molecular Probes), and AlexaFluor-488 donkey anti-mouse or goat IgG (1:1000; Molecular Probes), respectively. The slides were washed three times with PBS and mounted in Vectashield Mounting Medium with DAPI (Vector Laboratories, Burlingame, Calif.). […]
# [7] = phage homing in vivo, C8161 (s.c.) xenografts
# [8] = phage homing in vivo, MDA-MB-435 orthotopic xenografts
# [9] = fluorescein-conjugate peptide, C8161 tumor sections
# [10] = phage homing in vivo, MMTV-PyMT breast tumors
# [11] = phage homing in vivo, K14-HPV16 skin cancer
# [12] = phage homing in vivo, KRIB xenografts
# [13] = phage homing in vivo, PPC1 orthotopic xenografts
# [14] = phage homing in vivo, TRAMP prostate tumors
substance,measurement,setting,value
CLSDGKRKC [homing peptide for C8161 melanoma lymphatics],phage homing to C8161 tumors (in words),C8161 xenografts,Robust phage homing
same,phage homing to C8161 tumors (in words),C8161 xenografts; listed as CLSDGKRKC,homed selectively to the tumors
same,phage homing to C8161 tumors (in words),C8161 xenografts; listed as LSD phage,significantly higher than in normal tissues
same,relative efficiency of tumor homing of the two phage,"C8161 xenografts; i.v. injection, nude mice bearing C8161 tumors",about twice as efficient as CLDGGRPKC
same,Fold over control phage,C8161 xenografts; [7],39 fold
same,Specific Homing,C8161 xenografts; [7],Yes
same,fluorescent peptide homing to KRIB tumors (in words),KRIB tumors,slightly positive
same,phage homing to MDA-MB-435 tumors (in words),"[1]; i.v. injected phage, listed as LSD phage",did not appreciably home
same,Fold over control phage,[1]; [8],3 fold
same,Specific Homing,[1]; [8],No
same,fluorescent peptide in C8161 tumors and control organs,C8161 tumors,"detected within the tumors, but not in control organs"
same,co-localization with blood vessel markers MECA-32 and CD31,C8161 tumors; [9],no co-localization
same,"co-localization with lymphatic vessel markers podoplanin, Prox-1, LYVE-1, VEGFR3",C8161 tumors; [9],co-localization of the LSD fluorescence with them
same,lymphatic vessels positive for the peptide that were also positive for podoplanin,"C8161 tumors; fluorescein-conjugate peptide, C8161 tumors",85%
same,phage homing to MMTV-PyMT breast tumors (in words),MMTV-PyMT breast tumors; i.v. injected phage,did not appreciably home
same,Fold over control phage,MMTV-PyMT breast tumors; [10],3 fold
same,Specific Homing,MMTV-PyMT breast tumors; [10],No
same,phage binding to CXCR4-transfected 293T cells (in words),CXCR4; 293T cells,binds to 293T cells transfected with CXCR4
same,phage binding to CXCR4-transfected 293T cells versus mock- or VEGFR2-transfected cells,CXCR4; 293T cells,16 fold
same,inhibition of LSD phage binding to CXCR4-transfected 293T cells,"CXCR4; peptide 150 μg/ml co-incubated with phage, listed as LSD peptide",inhibits LSD-phage binding; also recorded: inhibited the binding
same,homing to K14-HPV16 skin cancers (in words),"K14-HPV16 skin cancer; i.v. injection, K14-HPV16 mice",possible low-level homing
same,Fold over control phage,K14-HPV16 skin cancer; [11],5 fold
same,Specific Homing,K14-HPV16 skin cancer; [11],No
same,phage homing to KRIB xenografts (in words),KRIB xenografts,slightly positive
same,phage homing to KRIB xenografts (in words),KRIB xenografts; listed as LSD phage,possible low-level homing
same,Fold over control phage,KRIB xenografts; [12],7^‡ fold
same,Specific Homing,KRIB xenografts; [12],Yes
same,binding to C8161 tumor cell suspensions relative to control phage,[2],100 fold
same,binding to cell suspensions prepared from C8161 tumors (in words),[2],bound to cell suspensions prepared from C8161 tumors
same,phage binding to VEGFR2-transfected 293T cells (in words),VEGFR2,not to cells transfected with VEGFR2
same,phage homing to PPC1 orthotopic xenografts (in words),[3]; i.v. injected phage,did not appreciably home
same,Fold over control phage,[3]; [13],3 fold
same,Specific Homing,[3]; [13],No
same,phage homing to TRAMP prostate tumors (in words),TRAMP prostate tumors; i.v. injected phage,did not appreciably home
same,Fold over control phage,TRAMP prostate tumors; [14],1 fold
same,Specific Homing,TRAMP prostate tumors; [14],No
FITC-LSD: fluorescein-conjugated LSD peptide (CLSDGKRKC) ({FITC}-CLSDGKRKC; cysteine pairing not given here),fluorescent peptide homing to KRIB tumors (in words),KRIB tumors,weakly positive
same,fluorescence in kidneys,"C8161 tumors; FITC-LSD (150 mg) i.v., 2 hrs",A few spots of LSD fluorescence
same,fluorescence in all other tissues except tumors,"C8161 tumors; FITC-LSD i.v., 2 hrs",negative
same,fluorescent peptide in C8161 tumors and control organs,C8161 tumors,Strong LSD peptide fluorescence
same,"fluorescent peptide homing to the other tumors, including skin cancers",[4],negative
"FITC-REA: fluorescein-labeled REA peptide (CREAGRKAC) (not fully specified (N-terminus); cysteine pairing not given here; also: FITC label, position not given here)",fluorescent peptide in K14-HPV16/E2 cervical lesions/tumors (in words),[5],homed to a lesser extent
same,"fluorescent peptide in PPC1, M12, DU145, LNCaP orthotopic xenografts",[6]; fluorescein-conjugated peptide,positive
same,co-localization with lymphatic vessels in orthotopic prostate tumor xenografts,[6]; immunohistochemical analysis,co-localized with lymphatic vessels
